Columns and labels:
Meg-01-derived platelets = assay: Collagen-induced shape change of Meg-01-derived platelets; format: cell-based, human; conditions: platelets from Meg-01 cells treated 10 μM for 24 h; collagen 10 μg/mL, 15 min
Method: (§1) Platelets were isolated from the Meg-01 cells and human blood as described above. Both normal human platelets and Meg-01-derived platelets were stained with annexin V-FITC then treated with 10 μg/ml of collagen for 15 min. Cells were analyzed for collagen-induced annexin V binding and change in size and shape by flow cytometry. Platelets were isolated from primary human megakaryocytes and primary mouse megakaryocytes as described above. Primary human platelets were stained with CD41-FITC and primary mouse platelets were stained with CD61-PE then treated with 10 μg/mL of collagen. Cells were analyzed for collagen-induced CD61/CD41 upregulation and change in size and shape using flow cytometry.

[1] = tested on: human culture-derived platelets; assay: Function of human culture-derived platelets (collagen response, spreading on fibrinogen); format: cell-based
Method: as §1
Coverslips were coated with 100 μg/mL of fibrinogen for 1 h and blocked with 0.5 mg/mL BSA for 1 h. Platelets were added to the fibrinogen-coated coverslips in Tyrode's buffer and fixed with glutaraldehyde, post-fixed with 1% osmium tetroxide, and dehydrated. Platelets were then coated with a gold/palladium film. Images were acquired using the Zeiss-Leo 982 FE-SEM (scanning electron microscope).

C57BL/6 mice = assay: Circulating platelet number in unirradiated mice; format: in vivo, mouse (C57BL/6); conditions: unirradiated mice, 1 mg/kg IV for 4 consecutive days
Method: Seven or 8-week-old male C57BL/6 mice (Jackson Laboratories) were either exposed to 5 Gy cesium (Cs^137) total body irradiation (TBI) using a Model 8114 6000 Curie Shepherd Cs^137 irradiator (approximately 3200 Curie sealed Cs^137 source) with a dose rate of […] or left unexposed. Mice (n=4) received intravenous injections of vehicle (8% DMSO) or 15d-PGJ2 (1 mg/kg) or CDDO-Me (250 μg/kg) for 4 consecutive days from day 1 (days 1, 2, 3 and 4 post-irradiation). Blood was obtained from the aorta or the orbital sinus. Platelets were counted prior to radiation exposure and after radiation exposure on day 10, day 22, and day 31 in Example 7, or days 4, 10, 16, and 21 in Example 9 using the Heska® CBC-Diff™ Veterinary Analyzer (Fort Collins, Colo.). Data are expressed as average platelet counts from two separate experiments. For the unirradiated mice, platelets were counted on day 4, day 10, and day 15 in Example 7 or on the same days in Example 9.

[2] = tested on: primary mouse megakaryocytes; assay: DNA content analysis of primary mouse megakaryocytes; format: cell-based
Method: Bone marrow was isolated from the femora of male C57BL/6 mice (Jackson Laboratories, Bar Harbor, Me.) and plated at a concentration of 1×10^6 cells per well in 12-well plates in IMDM (Iscove's Modified Dulbecco's Media, Invitrogen) with 20% BIT 9500 (BSA, insulin, transferrin) and supplemented with 100 ng/mL of rhTPO. Cells were cultured for 5 days, following which 15d-PGJ2 (10 μM) was added to the culture medium for 24 h. On the sixth day, cells were examined by phase-contrast microscopy using an inverted microscope (Olympus IX81) and images were captured using SPOT RT software (New Hyde Park, N.Y.). Megakaryocytes were identified by preincubating with anti-mouse CD16/32 (FcγR-blocking antibody) and then incubating with PE-conjugated hamster anti-mouse CD41 antibody.
Cells were fixed in 95% ethanol, treated with RNAse (Sigma) followed by 20 μg/mL propidium iodide (Sigma) to stain DNA, and analyzed by flow cytometry.

Meg-01 cells [3] = assay: Active-caspase protein in Meg-01 cells; format: cell-based, human; conditions: Meg-01 cells in the presence of 15d-PGJ2
Meg-01 cells [4] = assay: Meg-01 morphology (phalloidin f-actin staining, transmission electron microscopy); format: cell-based, human; conditions: 10 μM
Method: Cells were fixed and permeabilized with 0.1% triton-100 for 1 h at room temperature (RT). Subsequently, cells were blocked with 1% bovin serum albumin (BSA) in PBS-Tween 20 (0.1%) for 1 h at RT then stained with phalloidin-Alexa Fluor 488 (Invitrogen, 1:200) at RT for 2 h. Cells were mounted and visualized using an Olympus BX51 light microscope (Olympus, Melville, N.Y.).
Cells were fixed for 4 h in 2.5% glutaraldehyde in 0.1 M sodium cacodylate buffer. Post-fixation cells were placed in 1% osmium tetroxide in phosphate buffer, dehydrated in ethanol, embedded in EPON/Araldite epoxy resin and analyzed on a Hitachi H-7100 electron microscope.

CCCCCC=CC=C1C(=O)C=C[C@@H]1CC=CCCCC(=O)O [15d-PGJ2, 15-deoxy-Δ^12,14 prostaglandin J2]
platelets that decreased their size and increased their granularity in response to collagen (Meg-01-derived platelets): 68% | platelet spreading on fibrinogen ([1]; human culture-derived platelets, fibrinogen coated slide): spread in response to fibrinogen | geometric mean fluorescence intensity of surface CD61, after collagen treatment ([1]; platelets from CD61+ cell cultures treated with 15d-PGJ2, collagen 10 μg/mL, 15 min): 20 | geometric mean fluorescence intensity of surface CD61, before collagen ([1]; platelets from CD61+ cell cultures treated with 15d-PGJ2, no collagen): 5 | platelet numbers compared with vehicle (C57BL/6 mice): higher platelet numbers | primary mouse megakaryocyte ploidy ([2]; by 24 h): enhanced primary mouse megakaryocyte ploidy | DNA content ([2]; primary mouse megakaryocytes, 10 μM, 24 h): increased DNA content | active-caspase protein (Meg-01 cells [3]): upregulated active-caspase protein | morphological changes by f-actin (phalloidin) staining (Meg-01 cells [4]; within 1-2 h): Morphological changes, characteristic of megakaryopoiesis | structural characteristics by transmission electron microscopy (Meg-01 cells [4]; within 24 h): structural characteristics consistent with differentiating cells

From US9012439B2, “Use of electrophilic compounds for inducing platelet production or maintaining platelet function” (University of Rochester, priority 2007, dated 2015)
